In patent US11617726B2, “Method for preventing, treating, or ameliorating a microbial infection” (priority 2018, dated 2023):

Tested on: Multidrug Resistant Acinetobacter baumannii Isolates
Test: MIC of the micro-emulsions by broth dilution
Assay type: cell-based
Protocol: Nine sterile 7 mL PJ tubes were arranged in a rack in a row. Each tube contained one mL sterile MHB. Seven tubes were labeled as 7.847 mg+256 μg/mL, 3.923 mg+128 μg/mL, 1.961 mg+64 μg/mL, 0.980 mg+32 μg/mL, 0.490 mg+16 μg/mL, 0.245 mg+8 μg/mL and 0.122 mg+4 μg/mL. The eighth and ninth tubes were labeled as positive and negative controls, respectively.
The micro-emulsion made according to Example 1 was serially diluted to give two-fold dilutions as follows: one mL of the micro-emulsion of Example 1 was dispensed in the first tube (labeled as 7.847 mg+256 μg/mL) to give a concentration of 15.69 mg+512 μg drug/mL MHB. One mL of the first tube was added to the second tube (labeled as 3.923 mg+128 μg/mL) to give a concentration of 7.847 mg+256 μg drug/mL MHB. One mL of the second tube was transferred to the third tube (labeled as 1.961 mg+64 μg/mL) to give a concentration of 3.923 mg+128 drug/mL MHB. One mL of the third tube was added to the fourth tube (labeled as 0.980 mg+32 μg/mL) to give a concentration of 1.961 mg+64 drug/mL MHB. One mL of the fourth tube was dispensed in the fifth tube (labeled as 0.490 mg+16 μg/mL) to give a concentration of 0.980 mg+32 drug/mL MHB. One mL of the fifth tube was dispensed in the sixth tube (labeled as 0.245 mg+8 μg/mL) to give a concentration of 0.490 mg+16 μg drug/mL MHB. One mL of the sixth tube was added to the seventh tube (labeled as 0.122 mg+4 μg/mL) to give a concentration of 0.245 mg+8 μg drug/mL MHB. One mL of the content of the seventh tube was discarded. Inoculum suspensions (at 1-2×10^8 CFU/mL) were diluted 1:100 in MHB to obtain 1×10^6 CFU/mL. One mL of the diluted inoculum suspension (1×10^6 CFU/mL) was transferred to each tube except tube number nine.
Another nine sterile 7 mL PJ tubes were arranged in a rack in a row. Each tube contained one mL sterile MHB. […]
All inoculated tubes were incubated for 16-20 hours at 37° C. aerobically. After this incubation period, MIC was determined manually by observing the lowest concentration of antimicrobial agent showing no visible growth (turbidity). […]

CC1=CC(=O)C(C(C)C)=CC1=O [Thymoquinone, 2-isopropyl-5-methylbenzo-1,4-quinone]
MIC (Isolate 121): 64 µg/mL
MIC (Isolate 127): 32 µg/mL
MIC (Isolate 129): 32 µg/mL
